The test system of the assay is HRE/Luc/HEK293 cells. As to the kind of experiment: HRE (Hypoxia Response Element) luciferase assay. It counts as cell-based, human. The note with it: for fold induction at 10 µM / fold induction at 100 µM: Homo sapiens; for HRE expression: low concentration of 1 µM. As for the experimental part:
• (a) HRE assay: Confirmation of increased in HRE expression levels by the test substance relative to the vehicle in HRE/Luc/HEK293 cells • * Less than a twofold increase at 100 µM, • ** More than a twofold increase at 100 µM, • *** More than a twofold increase at 10 µM, • **** More than a twofold increase at 1 µM, • Not performed.
It has been reported that in the brains of AD patients, blood supply is mostly insufficient, resulting in oxygen levels being up to 50% lower than those of normal individuals, leading to increased oxidative stress (ROS) and neuroinflammation. It has also been studied that when the HIF-1α (hypoxia inducible factor-1) factor binds to the HRE (hypoxia response element), it increases VEGF (vascular endothelial growth factor), which promotes the formation of new blood vessels, thereby increasing oxygen levels in the brain and helping to inhibit nerve cell damage.
A reporter gene containing luciferase, capable of verifying the level of HRE expression, was inserted into HEK-293 human embryonic kidney cells, and HRE/Luc/HEK293 cells were constructed by inserting a plasmid (HRE/Luc) with luciferase attached downstream of the HRE promoter that binds to HIF-1α using lipofectamine (Invitrogen).
To perform HRE luciferase analysis, HRE/Luc/HEK293 cells were seeded in 96-well culture plates at a cell density of 4 x 10^4 per well in minimal essential medium (MEM) containing 10% fetal bovine serum. After one day, the cell medium was removed and replaced with medium mixed with various concentrations of example compounds. Six hours after compound pretreatment, HRE/Luc/HEK293 cells were cultured under hypoxic conditions (O2 0.1%) for 18 hours. Subsequently, the cells were washed with phosphate buffer, lysed with lysis buffer, and then the luciferase reagent (Promega) for luciferase analysis was added. Afterward, changes in HRE expression levels associated with HIF-1 signaling were evaluated by measuring luminescence using an Infinite200 (Tecan).

The mark [1] stands for this setting: HEK293, 18 h, Table 2 (Examples 75-109, 114), read-out: HRE-inceasing 10uM.
Where [2] appears, read: HEK293, 18 h, Table 2 (Examples 75-109, 114), read-out: HRE-inceasing 100uM.
The mark [3] stands for this setting: HEK293, 18 h, Table 2 (Examples 37-74, 52), read-out: HKt-increasing 10uM.
[4] abbreviates: HEK293, 18 h, Table 2 (Examples 37-74, 52), read-out: HKt-increasing 100uM.

Read-outs that look alike come from different tables or passages of the source.

On to `COc1ccc2oc(-c3cccc(O[C@H]4OC[C@H](O)[C@H](O)[C@H]4O)c3)nc2c1` [Example 107, (2R,3R,4S,5S)-2-(3-(5-methoxybenzo[d]oxazol-2-yl)phenoxy)tetrahydro-2H-pyran-3,4,5-triol], for which the HRE expression entry is reported as “more than threefold”. For the same compound, under setting [1], the fold induction at 10 µM was 3.1. Besides, the fold induction at 100 µM under setting [2] turned out to be 4.2.
With `CC(C)[C@H]1CC[C@H](Cc2ccc(O[C@H]3OC[C@H](O)[C@H](O)[C@H]3O)cc2)CC1` [Example 74, (2R,3R,4S,5S)-2-(4-(((1R,4R)-4-isopropylcyclohexyl)methyl)phenoxy)tetrahydro-2H-pyran-3,4,5-triol], the fold induction at 10 µM under setting [3] turned out to be 1.9. Moreover, the fold induction at 100 µM under setting [4] amounted to 3.
As for `COc1ccc2oc(-c3ccc(O[C@H]4OC[C@H](O)[C@H](O)[C@H]4O)c(Cl)c3)nc2c1` [Example 103, (2R,3R,4S,5S)-2-(2-chloro-4-(5-methoxybenzo[d]oxazol-2-yl)phenoxy)tetrahydro-2H-pyran-3,4,5-triol], under setting [1], the fold induction at 10 µM was 2.6. Under setting [2], the fold induction at 100 µM came to 2.9.
For the compound `COc1ccc(Cc2ccc(O[C@H]3OC[C@H](O)[C@H](O)[C@H]3O)cc2)cc1Cl` [Example 37, (2R,3R,4S,5S)-2-(4-(3-chloro-4-methoxybenzyl)phenoxy)tetrahydro-2H-pyran-3,4,5-triol], under setting [3], the fold induction at 10 µM was determined as 1.1. Moreover, under setting [4], the fold induction at 100 µM came out at 1.3.
In the case of `CC(C)c1ccc(Cc2ccc(O[C@H]3OC[C@@H](O)[C@H](O)[C@H]3O)cc2)cc1` [Example 43, (2R,3R,4S,5R)-2-(4-(4-isopropylbenzyl)phenoxy)tetrahydro-2H-pyran-3,4,5-triol], the HRE expression result is recorded as “more than threefold”. Besides, the fold induction at 10 µM under setting [3] was 3.3. Besides, under setting [4], the fold induction at 100 µM turned out to be 2.5.
`CC(C)c1ccc(Oc2ccc(O[C@H]3OC[C@H](O)[C@H](O)[C@@H]3F)cc2)cc1` [Example 65, (3S,4S,5S,6R)-5-fluoro-6-(4-(4-isopropylphenoxy)phenoxy)tetrahydro-2H-pyran-3,4-diol]: the fold induction at 10 µM under setting [3] amounted to 2.6. Besides, the fold induction at 100 µM under setting [4] was 2.4.
The like results for `CC(C)c1ccc(Oc2ccc(O[C@H]3OC[C@H](O)[C@H](O)[C@H]3N)cc2)cc1` [Example 70, (3S,4R,5R,6R)-5-amino-6-(4-(4-isopropylphenoxy)phenoxy)tetrahydro-2H-pyran-3,4-diol] were, in that order, 1.2 and 3.1.
As for `COc1ccc(-c2ccc(O[C@H]3OC[C@H](O)[C@H](O)[C@H]3O)cc2)cn1` [Example 85, (2R,3R,4S,5S)-2-(4-(6-methoxypyridin-3-yl)phenoxy)tetrahydro-2H-pyran-3,4,5-triol], the fold induction at 10 µM under setting [1] came to 1.3. The fold induction at 100 µM under setting [2] turned out to be 2.6.
For `O=C(c1ccc(O[C@@H]2OC[C@H](O)[C@H](O)[C@H]2O)cc1)c1ccco1` [Example 114, furan-2-yl (4-(((2S,3R,4S,5S)-3,4,5-trihydroxytetrahydro-2H-pyran-2-yl)oxy)phenyl)methanone], under setting [1], the fold induction at 10 µM was determined as 1.1. Besides, the fold induction at 100 µM under setting [2] was determined as 1.3.
`CSc1ccc(Cc2ccc(O[C@H]3OC[C@H](O)[C@H](O)[C@H]3O)cc2)cc1` [Example 11, (2R,3R,4S,5S)-2-(4-(4-(methylthio)benzyl)phenoxy)tetrahydro-2H-pyran-3,4,5-triol]: the fold induction at 10 µM (HEK293, fold increase of HRE expression, hypoxic conditions (O2 0.1%) 18 hours, Table 2, read-out: HRE-increasing 10uM) came to 2.4. Besides, the fold induction at 100 µM (HEK293, fold increase of HRE expression, hypoxic conditions (O2 0.1%) 18 hours, Table 2, read-out: HRE-increasing 100uM) was determined as 2.4. Besides, the HRE assay entry (increase in HRE expression levels by the test substance relative to the vehicle in HRE/Luc/HEK293 cells) is “•••”.
On to `CC(C)c1ccc(Oc2ccc(O[C@H]3OC[C@@H](O)[C@H](O)[C@H]3O)c(Cl)c2)cc1` [Example 67, (2R,3R,4S,5R)-2-(2-chloro-4-(4-isopropylphenoxy)henoxy)tetrahydro-2H-pyran-3,4,5-triol], for which the HRE expression entry was “more than threefold”. Besides, the fold induction at 10 µM under setting [3] was found to be 3.5. Moreover, under setting [4], the fold induction at 100 µM turned out to be 2.6.

The values above are taken from patent EP4810508A1, “ARABINOSE DERIVATIVE COMPOUND, AND COMPOSITION COMPRISING SAME FOR PREVENTING OR TREATING DEGENERATIVE BRAIN DISEASES” (Digmbio. Inc., priority 2023, dated 2025).
